The target of one experiment is GCGR (Homo sapiens, UniProt P47871). Kind of experiment: I125-glucagon binding assay (competition, GCGR membrane fractions). Particulars: for IC50: competition with I125-glucagon 0.0625 nM, membrane fractions from GCGR overexpressed CHO-K1 cells. Details: expressed in transfected cells; host or cells: CHO-K1. An outline of the steps:
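Membranes from CHO-K1 cells overexpressing GCGR (7.5 µg/well) were preincubated 5 min with serially diluted compound in 50 mM Tris pH 7.4, 0.5% BSA. I125-glucagon was then added at 0.0625 nM final and incubated 30 min at 25 °C. After filtration, bound radioactivity was counted and IC50 derived by non-linear regression.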

In a further experiment the target is T1, glucagon receptor (GCGR) (Homo sapiens, UniProt P47871).
T1 construct: expressed in transfected cells; host or cells: CHO-K1
T1 sequence (P47871 26-477, species assumed): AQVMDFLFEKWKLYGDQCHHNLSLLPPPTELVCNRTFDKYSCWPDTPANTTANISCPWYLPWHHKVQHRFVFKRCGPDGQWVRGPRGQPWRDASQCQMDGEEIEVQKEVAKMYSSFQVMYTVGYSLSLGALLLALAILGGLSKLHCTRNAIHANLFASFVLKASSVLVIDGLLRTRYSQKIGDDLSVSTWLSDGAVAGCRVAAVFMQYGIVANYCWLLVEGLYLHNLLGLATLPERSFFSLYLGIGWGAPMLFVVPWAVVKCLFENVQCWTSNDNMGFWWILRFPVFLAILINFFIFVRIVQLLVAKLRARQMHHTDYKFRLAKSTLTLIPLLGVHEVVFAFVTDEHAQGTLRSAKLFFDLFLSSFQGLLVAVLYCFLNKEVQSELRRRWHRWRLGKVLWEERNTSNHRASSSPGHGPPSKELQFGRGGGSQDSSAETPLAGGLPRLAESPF
Kind of experiment: Glucagon cAMP inhibition assay (Cisbio cAMP Dynamic 2 HTRF). The note with it: GCGR overexpressed CHO-K1 cells or human primary hepatocytes (not specified); glucagon at EC50. In kind it is cell-based. The method, boiled down:
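GCGR-overexpressing CHO-K1 cells or human primary hepatocytes in HBSS with 0.1% BSA and 800 nM IBMX, pre-incubated 30 min with compound (1% DMSO final), then stimulated 30 min at room temperature with glucagon at its EC50. cAMP measured by HTRF after 60 min lysis; IC50 from non-linear regression.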

Some results are limits rather than exact numbers.

Chain of GCGR (P47871 26-477, species assumed): as above

As for `CCCCC(Nc1ccc(C(=O)NCCC(=O)OCC)cc1)c1ccc(-c2nc3ccccc3o2)cc1` (centres unmarked) [Compound 4-2, ethyl 3-(4-((1-(4-(benzo[d]oxazol-2-yl)phenyl)pentyl)amino)benzamido)propanoate], the IC50 came to 799 nM at GCGR and 119 nM against glucagon receptor (GCGR).
For `CC(C)[C@H](Nc1ccc(C(=O)NCCC(=O)O)cc1)c1ccc(-c2nc(-c3ccccc3)no2)cc1` [Compound 5-4, (S)-3-(4-((2-methyl-1-(4-(3-phenyl-1,2,4-oxadiazol-5-yl)phenyl)propyl)amino)benzamido)propanoic acid], in that order: 34.1 nM and 292 nM.
With `CCOC(=O)CCNC(=O)c1ccc(NC(c2ccc(-c3nnc(-c4ccccc4)o3)cc2)C(C)CC)cc1` (centres unmarked) [Compound 1-10, Ethyl 3-(4-((2-methyl-1-(4-(5-phenyl-1,3,4-oxadiazol-2-yl)phenyl)butyl)amino)benzamido)propanoate], the IC50 was 1870 nM at GCGR and 25 nM at glucagon receptor (GCGR). At GCGR (compound at 30 μM, read-out: percentage of inhibition (number in parenthesis in IC50 binding column)), the inhibition at 30 µM stood at 34%.
As to `CCOC(=O)CCNC(=O)c1ccc(N[C@@H](c2ccc(-c3nnc(-c4ccccc4)o3)cc2)C(C)C)cc1` [Compound 1-40, (R)-ethyl 3-(4-(2-methyl-1-(4-(5-phenyl-1,3,4-oxadiazol-2-yl)phenyl)propylamino)benzamido)propanoate], the results for the IC50 at GCGR and on glucagon receptor (GCGR) were more than 30000 nM and 162 nM, respectively.
In the case of `CCCC[C@@H](Nc1ccc(C(=O)NCCC(=O)O)cc1)c1ccc(-c2nnc(C(F)(F)F)o2)cc1` [Compound 1-54, (R)-3-(4-((1-(4-(5-(trifluoromethyl)-1,3,4-oxadiazol-2-yl)phenyl)pentyl)amino)benzamido)propanoic acid], the figures for the IC50 on GCGR and against glucagon receptor (GCGR) were 3070 nM and 3670 nM, respectively.
The matching figures for `CCOC(=O)CCNC(=O)c1ccc(NC(CC(C)C)c2ccc(-c3nnc(-c4ccc(F)cc4)o3)cc2)cc1` (centres unmarked) [Compound 1-27, ethyl 3-(4-((1-(4-(5-(4-fluorophenyl)-1,3,4-oxadiazol-2-yl)phenyl)-3-methylbutyl)amino)benzamido)propanoate]: more than 30000 nM and 118 nM.
As for `CCC(C)[C@H](Nc1ccc(C(=O)NCCC(=O)O)cc1)c1ccc(-c2noc(C(F)(F)F)n2)cc1` (stereo partly drawn) [Compound 2-30, 3-(4-(((1S)-2-methyl-1-(4-(5-(trifluoromethyl)-1,2,4-oxadiazol-3-yl)phenyl)butyl)amino)benzamido)propanoic acid], the results for the IC50 on GCGR and at glucagon receptor (GCGR) were 166 nM and 550 nM, respectively.
Consider `CC(C)[C@@H](Nc1ccc(C(=O)NCCC(=O)O)cc1)c1ccc(-c2nc3ccccc3o2)cc1` [Compound 4-8, (R)-3-(4-((1-(4-(benzo[d]oxazol-2-yl)phenyl)-2-methylpropyl)amino)benzamido)propanoic acid], for which the IC50 is 372 nM at GCGR and 1080 nM against glucagon receptor (GCGR).
The matching figures for `O=C(O)CCNC(=O)c1ccc(NC(c2ccc(-c3noc(-c4ccccc4)n3)cc2)C2CCCC2)cc1` (centres unmarked) [Compound 2-15, 3-(4-((cyclopentyl(4-(5-phenyl-1,2,4-oxadiazol-3-yl)phenyl)methyl)amino)benzamido)propanoic acid]: 106 nM and 450 nM.
With `COC(=O)CCNC(=O)c1ccc(NC(c2ccc(-c3nnc(-c4ccccc4)o3)cc2)C(C)C)cc1` (centres unmarked) [Compound 1-2, Methyl 3-(4-((2-methyl-1-(4-(5-phenyl-1,3,4-oxadiazol-2-yl)phenyl)propyl)amino)benzamido)propanoate], the values for the IC50 on GCGR and on glucagon receptor (GCGR) were 1220 nM and 113 nM, respectively.
In the case of `CCC(C)C(Nc1ccc(C(=O)NCCC(=O)O)cc1)c1ccc(-c2nnc(C(C)(C)C)o2)cc1` (centres unmarked) [Compound 1-22, 3-(4-((1-(4-(5-(tert-butyl)-1,3,4-oxadiazol-2-yl)phenyl)-2-methylbutyl)amino)benzamido)propanoic acid], the IC50 on GCGR was 246 nM; at glucagon receptor (GCGR) it was 10300 nM.
